# Assay results reported in ChEMBL document CHEMBL1152680, “Peptide inhibitors of HIV-1 integrase: from mechanistic studies to improved lead compounds” (Bioorg Med Chem, 2009).
# Activity calls are given as the source filed them. The rule behind the calls is not given here.
# Tests used:
# [1] = target: T1, Human immunodeficiency virus type 1 integrase (Human immunodeficiency virus 1, UniProt Q7ZJM1); experiment: Binding affinity to histidine-tagged HIV1 full length integrase by fluorescence anisotropy
# T1 sequence (Q7ZJM1 whole entry): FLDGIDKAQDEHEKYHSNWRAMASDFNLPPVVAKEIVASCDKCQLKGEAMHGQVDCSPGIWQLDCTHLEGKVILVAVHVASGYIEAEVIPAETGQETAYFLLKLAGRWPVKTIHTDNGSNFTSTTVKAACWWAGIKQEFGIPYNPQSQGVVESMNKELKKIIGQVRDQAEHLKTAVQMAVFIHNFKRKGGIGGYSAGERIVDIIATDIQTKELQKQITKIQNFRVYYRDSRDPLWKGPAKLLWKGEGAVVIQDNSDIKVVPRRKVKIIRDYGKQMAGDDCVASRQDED
# [2] = target: Human immunodeficiency virus type 1 integrase (Human immunodeficiency virus 1) (UniProt Q7ZJM1); experiment: Inhibition of viral DNA binding to dimeric histidine-tagged HIV1 full length integrase treated for 20 mins before addition of fluorescein-labeled viral LTR DNA by fluorescence anisotropy
# Human immunodeficiency virus type 1 integrase (Human immunodeficiency virus 1), sequence (Q7ZJM1 as listed by the source): as the sequence (Q7ZJM1 whole entry) above
# [3] = test system: Human immunodeficiency virus 1; experiment: Antiviral activity against HIV1 infected in human TZM-bl cells assessed as inhibition of viral replication treated 2 hrs before viral infection; format: functional, organism-based
# [4] = target: Human immunodeficiency virus type 1 integrase (Human immunodeficiency virus 1) (UniProt Q7ZJM1); experiment: Inhibition of integration activity of histidine-tagged HIV1 full length integrase at enzyme to peptide molar ratio of 1:50; details: concentration not given here
# [5] = test system: Human immunodeficiency virus 1; experiment: Antiviral activity against HIV1 infected in human SupT1 cells assessed as change in total amount of viral DNA at 0.5 to 62.5 uM treated 2 hrs before viral infection measured after 24 hrs by real time PCR analysis; format: functional, organism-based; details: SUP-T1
# [6] = test system: Human immunodeficiency virus 1; experiment: Antiviral activity against HIV1 infected in human TZM-bl cells assessed as inhibition of viral replication at 62.5 uM treated 2 hrs before viral infection measured after 2 days by MAGI assay; format: functional; details: Human immunodeficiency virus 1, TZM-bl
# [7] = Cellular uptake in nucleus of human HeLa cells at 10 uM after 2 hrs by confocal microscopy; format: ADME, cell-based
# [8] = target: Human immunodeficiency virus type 1 integrase (Human immunodeficiency virus 1) (UniProt Q7ZJM1); experiment: Inhibition of histidine-tagged HIV1 full length integrase assessed as inhibition of viral DNA integration into human SupT1 cellular genome at 62.5 uM treated 2 hrs before viral infection measured after 24 hrs by real time PCR analysis; format: cell-based
# [9] = Cellular uptake in cytoplasm of human HeLa cells at 10 uM after 2 hrs by confocal microscopy; format: ADME, cell-based
# [10] = target: Human immunodeficiency virus type 1 integrase (Human immunodeficiency virus 1) (UniProt Q7ZJM1); experiment: Binding affinity to dimeric histidine-tagged HIV1 full length integrase by analytical gel filtration
# [11] = target: Human immunodeficiency virus type 1 integrase (Human immunodeficiency virus 1) (UniProt Q7ZJM1); experiment: Binding affinity to HIV1 integrase DNA binding domain (240-260) by ELISA
# [12] = target: Human immunodeficiency virus type 1 integrase (Human immunodeficiency virus 1) (UniProt Q7ZJM1); experiment: Binding affinity to HIV1 integrase catalytic core domain (118-132) by ELISA
# [13] = target: Human immunodeficiency virus type 1 integrase (Human immunodeficiency virus 1) (UniProt Q7ZJM1); experiment: Ratio of compound to IN1 activity for inhibition of viral DNA binding to histidine-tagged HIV1 full length integrase
# [14] = target: Human immunodeficiency virus type 1 integrase (Human immunodeficiency virus 1) (UniProt Q7ZJM1); experiment: Binding affinity to HIV1 integrase catalytic core domain (94-112) by ELISA
# [15] = target: Human immunodeficiency virus type 1 integrase (Human immunodeficiency virus 1) (UniProt Q7ZJM1); experiment: Inhibition of integration activity of histidine-tagged HIV1 full length integrase at 76 uM
# [16] = target: T1, Human immunodeficiency virus type 1 integrase; experiment: Binding affinity to tetrameric histidine-tagged HIV1 full length integrase by fluorescence anisotropy
# [17] = target: Human immunodeficiency virus type 1 integrase (Human immunodeficiency virus 1) (UniProt Q7ZJM1); experiment: Inhibition of viral DNA binding to tetrameric histidine-tagged HIV1 full length integrase treated for 20 mins before addition of fluorescein-labeled viral LTR DNA by fluorescence anisotropy
# [18] = target: Human immunodeficiency virus type 1 integrase (Human immunodeficiency virus 1) (UniProt Q7ZJM1); experiment: Binding affinity to HIV1 integrase catalytic core domain (70-84) by ELISA
# [19] = Solubility of the compound; format: physicochemical
# [20] = target: Human immunodeficiency virus type 1 integrase (Human immunodeficiency virus 1) (UniProt Q7ZJM1); experiment: Binding affinity to tetrameric histidine-tagged HIV1 full length integrase by analytical gel filtration
Substance,inhibition [2],inhibition [3],inhibition [4],Activity [5],Kd ([1]; read-out: Kd),inhibition at 62.5 µM [6],Drug uptake [7],inhibition [8],Drug uptake [9],Activity [10],Activity [11],Activity [12],Ratio [13],Activity [14],inhibition [15],also measured
H-WITVLR-OH,Active,Dose-dependent effect,,,,,,,,,,,,,,Kd [1]: Not Active
H-WQSLTLTHRG-OH,Active,Dose-dependent effect,62%,inactive,1.2 µM,60%,Active,51%,Active,,,,,,,
H-WFVLLTITVLR-OH [WFVLLTITVLR],Active,Dose-dependent effect,24%,inactive,1.8 µM,29%,Active,23%,Active,Active,Active,Active,2,,,
H-WQCLTLTHRG-OH,Active,Dose-dependent effect,,inactive,1.7 µM,68%,Active,64%,Active,Active,,Active,2,Active,73%,
H-WQCLTLTHRGFVLLTITVLR-OH,,Dose-dependent effect,,inactive,,70%,,63%,,,Active,Active,,Active,77%,Kd [16]: 8.7 µM; inhibition [17]: Active; Activity [18]: Active; solubility [19]: Soluble; Activity [20]: Active
